According to patent US8344180B2, “Hydrazine amide derivative” (Shionogi & Co., Ltd., priority 2006, dated 2013):

Each compound was assayed against T1, human NPY Y5 receptor (Homo sapiens, UniProt Q15761) (assay: Affinity for NPY Y5 receptor ([125I] peptide YY binding to CHO cell membranes)). Details: membranes from CHO cells expressing NPY Y5 receptor; [125I] peptide YY 60 pM; 25° C., 2 hours; read-out: 50% inhibitory concentration of the test-compound against the specific peptide YY binding (IC50 value).
T1 construct: expressed in transfected cells; membranes used
T1 sequence (Q15761 1-445): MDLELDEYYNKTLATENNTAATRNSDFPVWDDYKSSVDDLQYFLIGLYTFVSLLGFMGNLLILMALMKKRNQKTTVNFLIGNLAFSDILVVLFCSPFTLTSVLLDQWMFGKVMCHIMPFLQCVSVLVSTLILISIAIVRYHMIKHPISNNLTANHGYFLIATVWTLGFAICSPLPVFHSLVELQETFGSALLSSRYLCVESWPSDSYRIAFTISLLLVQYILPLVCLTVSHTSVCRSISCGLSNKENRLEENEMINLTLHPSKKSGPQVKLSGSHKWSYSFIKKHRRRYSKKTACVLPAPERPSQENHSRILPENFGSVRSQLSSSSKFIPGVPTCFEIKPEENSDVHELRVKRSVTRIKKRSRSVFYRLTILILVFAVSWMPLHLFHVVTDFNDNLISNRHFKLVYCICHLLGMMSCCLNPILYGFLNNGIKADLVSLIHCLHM
Source text: Experiment 1: Affinity for NPY Y5 Receptor
cDNA sequence encoding a human NPY Y5 receptor (WO96/16542) was cloned in a vector pME18S (Takebe et al. Mol. Cell. Biol. 8, 8957). The obtained expression vector was transfected into CHO cells as a host by using Lipofect AMINE reagent (Trademark, Gibco BRL Co., Ltd.) according to the instruction manual. The cells that stably express NPY Y5 receptor were obtained.
The membranes prepared from the CHO cells expressing NPY Y5 receptor, the compound of the present invention and 30,000 cpm [^125I] peptide YY (60 pM of final concentration: Amersham) were incubated in the assay buffer (20 mM HEPES-Hanks buffer containing 0.1% bovine serum albumin, pH 7.4) at 25° C. for 2 hours, and then the membrane was filtered from the mixture through a glassfilter (GF/C) presoaked with 1% polyethyleneimine. After washing with 50 mM Tris-HCl buffer (pH 7.4), radioactivity retained on the filters was quantified with a gamma counter. Nonspecific binding was defined as the amount of radioactivity bound to the membranes after incubation in the presence of 200 nM of peptide YY. The 50% inhibitory concentration of the test-compound against the specific peptide YY binding (IC50 value) was calculated (Inui, A. et al. Endocrinology 131, 2090-2096 (1992)).

Row | IC50 [nM] | Compound
1 | 2.3 | CC(C)(C)S(=O)(=O)N[C@H]1CC[C@H](C(=O)NNc2ccc(Cl)c(Cl)c2)CC1 [Example I-4]
2 | 1.1 | CC(C)S(=O)(=O)N[C@H]1CC[C@H](C(=O)NNc2ccc(Cl)c(Cl)c2)CC1 [Example I-8]
3 | 0.88 | CC(C)(C)S(=O)(=O)N[C@H]1CC[C@H](C(=O)NNc2cccc3ccccc23)CC1 [Example I-17]
4 | 1.12 | CC(C)(C)S(=O)(=O)N[C@H]1CC[C@H](C(=O)NNc2cccc(-c3ccccc3)c2)CC1 [Example I-23]
